From patent publication US20130040317A1, “CELL LINES COMPRISING ENDOGENOUS TASTE RECEPTORS AND THEIR USES” (THE UNIVERSITY OF NORTH CAROLINA AT CHAPEL HILL, priority 2011, published 2013)
Like-named read-outs stand apart in the source and are kept apart here.

What was measured:
Format in all cases: cell-based, human
NCI-H520 cells = test: FLIPR calcium flux assay, tastant response in NCI-H520 cells
Protocol: (§1) Calcium flux assays were performed as previously described in Strachan et al., “Ribosomal S6 kinase 2 directly phosphorylates the 5-hydroxytryptamine 2A (5-HT2A) serotonin receptor, thereby modulating 5-HT2A signaling,” J Biol Chem 284:5557-5573 (2009). MB9812, NCI-H520 or NCI-H522 cells were trypsinized, counted, and seeded onto clear-bottomed 96 well plates (Greiner Bio-One; Monroe, N.C.) pre-coated with poly-D-lysine, at a density of 7.5×10^5 cells per well. After a 24 hour incubation, media was removed and replaced with a […] assay buffer (20 mM HEPES, 1× HBSS, 2.5 mM probenecid, and Ca^2+ assay dye, pH 7.4) (FLIPR® Calcium Assay Kit; Molecular Device Corp, Sunnyvale, Calif.). After a 1-hour incubation at 37° C., during which the cells were allowed to take up the dye, fluorescence responses of cells were measured with a FLIPRTETRA (Molecular Device Corp; Sunnyvale, Calif.) device upon the addition of variable concentrations of tastant, or vehicle, in the presence of assay buffer (20 mM HEPES, pH 7.4, 1× Hanks Balanced Salt [Invitrogen; Carlsbad, Calif.] and 2.5 mM probenecid). After data acquisition, a subsequent addition of […] was injected into each well, and fluorescence was measured again. Net peak responses to tastants were normalized to net peak responses to thapsigargin. […]

MB9812 cells = test: FLIPR calcium flux assay, tastant response in MB9812 cells
Protocol: Calcium flux assays were performed as previously described in Strachan et al., “Ribosomal S6 kinase 2 directly phosphorylates the 5-hydroxytryptamine 2A (5-HT2A) serotonin receptor, thereby modulating 5-HT2A signaling,” J Biol Chem 284:5557-5573 (2009). MB9812, NCI-H520 or NCI-H522 cells were trypsinized, counted, and seeded onto clear-bottomed 96 well plates (Greiner Bio-One; Monroe, N.C.) pre-coated with poly-D-lysine, at a density of 7.5×10^5 cells per well. After a 24 hour incubation, media was removed and replaced with a […] assay buffer (20 mM HEPES, 1× HBSS, 2.5 mM probenecid, and Ca^2+ assay dye, pH 7.4) (FLIPR® Calcium Assay Kit; Molecular Device Corp, Sunnyvale, Calif.). After a 1-hour incubation at 37° C., during which the cells were allowed to take up the dye, fluorescence responses of cells were measured with a FLIPRTETRA (Molecular Device Corp; Sunnyvale, Calif.) device upon the addition of variable concentrations of tastant, or vehicle, in the presence of assay buffer (20 mM HEPES, pH 7.4, 1× Hanks Balanced Salt [Invitrogen; Carlsbad, Calif.] and 2.5 mM probenecid). After data acquisition, a subsequent addition of […] was injected into each well, and fluorescence was measured again. Net peak responses to tastants were normalized to net peak responses to thapsigargin. Responses were compared with that of wild-type control MB9812, NCI-H520 or NCI-H522 cells. Statistical and graphical analyses were performed using Prism v. 5.0b (GraphPad Software; La Jolla, Calif.).
MB9812, NCI-H520 and NCI-H522 cells were selected for taste stimulation. The cells were loaded with fluorescent calcium-sensitive dye, treated with a variety of tastants, and monitored for intracellular calcium release with a FLIPR imaging device.

NCI-H522 cells = test: FLIPR calcium flux assay, tastant response in NCI-H522 cells
Protocol: as §1

`C=C1C[C@@]23CC[C@H]4[C@@](C)(CCC[C@@]4(C)C(=O)O[C@@H]4O[C@H](CO)[C@@H](O)[C@H](O)[C@H]4O)[C@@H]2CC[C@]1(O[C@@H]1O[C@H](CO)[C@@H](O)[C@H](O[C@@H]2O[C@H](CO)[C@@H](O)[C@H](O)[C@H]2O)[C@H]1O[C@@H]1O[C@H](CO)[C@@H](O)[C@H](O)[C@H]1O)C3` [Rebaudioside A] was tested, and the “cell response to tastant (increase in intracellular calcium, FLIPR calcium flux)” value (NCI-H520 cells) was “respond”.
`CC[N+](CC)(CC(=O)Nc1c(C)cccc1C)Cc1ccccc1` [denatonium-B, denatonium benzoate] was tested, and the “cell response to tastant (increase in intracellular calcium, FLIPR calcium flux)” value (NCI-H520 cells) was “respond”, the “cell response to tastant (increase in intracellular calcium, FLIPR calcium flux)” value (MB9812 cells) was “respond” and the “cell response to tastant (increase in intracellular calcium, FLIPR calcium flux)” value (MB9812 cells; listed as denatonium B) was “response”. The “cell response to tastant (increase in intracellular calcium, FLIPR calcium flux)” value (NCI-H522 cells) was “respond”.
`O=C(CO)[C@@H](O)[C@H](O)[C@H](O)CO` [fructose] was tested, and the “cell response to tastant (increase in intracellular calcium, FLIPR calcium flux)” value (MB9812 cells) was “response”.
In the case of `OC[C@H]1O[C@@](CO)(O[C@H]2O[C@H](CO)[C@@H](O)[C@H](O)[C@H]2O)[C@@H](O)[C@@H]1O` [sucrose], the “cell response to tastant (increase in intracellular calcium, FLIPR calcium flux)” value (MB9812 cells) is reported as “response”.
